# Literature values, collected in patent publication US20130011354A1, “Compositions For Enhancing Hair Growth” (Allergan, Inc., priority 2009, published 2013).
# Tested on: eyelashes
# Settings: Lumigan ophthalmic solution applied in the FDA approved manner for glaucoma
compound,measurement,value
"CCNC(=O)CCC/C=C\C[C@@H]1[C@@H](/C=C/[C@@H](O)CCc2ccccc2)[C@H](O)C[C@@H]1O [Bimatoprost, cyclopentane N-ethyl heptanamide-5-cis-2-(3α-hydroxy-5-phenyl-1-trans-pentenyl)-3,5-dihydroxy, [1α,2β,3α,5α]]",growth of eyelashes,effective to increase the growth of eyelashes
